Experimental data taken from patent publication US12129237B2, “Substituted diaminocarboxamide and diaminocarbonitrile pyrimidines, compositions thereof, and methods of treatment therewith” (SIGNAL PHARMACEUTICALS, LLC, priority 2011, dated 2024).

Target: T1, JNK1 (Homo sapiens, UniProt P45983)
T1 construct: purchased Carna Biosciences
Assay: JNK1 biochemical assays (one or more of: time resolved fluorescence, Z'-LYTE Cascade, radioactive)
Conditions: one or more of the JNK1 biochemical assays; read-out: Act. Level (JNK1 IC50 activity level)

T1 sequence (P45983 whole entry): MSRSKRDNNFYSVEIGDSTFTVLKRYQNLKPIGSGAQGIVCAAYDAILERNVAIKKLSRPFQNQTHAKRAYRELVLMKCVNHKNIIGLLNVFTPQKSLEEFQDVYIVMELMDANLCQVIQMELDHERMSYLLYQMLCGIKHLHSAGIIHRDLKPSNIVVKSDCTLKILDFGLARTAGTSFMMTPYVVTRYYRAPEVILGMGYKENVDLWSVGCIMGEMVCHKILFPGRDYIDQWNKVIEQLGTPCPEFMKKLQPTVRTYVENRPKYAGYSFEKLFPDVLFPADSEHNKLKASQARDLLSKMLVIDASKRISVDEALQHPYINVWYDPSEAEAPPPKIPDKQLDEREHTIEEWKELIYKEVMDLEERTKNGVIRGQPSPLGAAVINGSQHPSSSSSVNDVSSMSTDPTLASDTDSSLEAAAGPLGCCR

Compound | IC50 [µM]
COC12CCC(Nc3ncc(C(N)=O)c(NC4CCC[C@](C)(O)C4)n3)(CC1)CC2 (stereo partly drawn) [Example 370, 4-((3S)-3-hydroxy-3-methylcyclohexylamino)-2-(4-methoxybicyclo[2.2.2]octan-1-ylamino)pyrimidine-5-carboxamide] | < 0.2
CC(C)(C)Nc1nc(N[C@H]2CC[C@@](C)(O)CC2)ncc1C(N)=O [Example 371, 4-(tert-butylamino)-2-((1s,4s)-4-hydroxy-4-methylcyclohexylamino)pyrimidine-5-carboxamide] | < 0.2
CC[C@H](Nc1nc(N[C@H]2CC[C@H](OC)CC2)ncc1C(N)=O)C1CC1 [Example 372, 4-((S)-1-cyclopropylpropylamino)-2-((1r,4S)-4-methoxycyclohexylamino)pyrimidine-5-carboxamide] | < 0.2
CCO[C@H]1CC[C@H](Nc2ncc(C(N)=O)c(N[C@@H](CC)C3CC3)n2)CC1 [Example 373, 4-((S)-1-cyclopropylpropylamino)-2-((1r,4S)-4-ethoxycyclohexylamino)pyrimidine-5-carboxamide] | < 0.2
CC[C@@H](Nc1nc(N[C@H]2CC[C@H](OC)CC2)ncc1C(N)=O)C1CC1 [Example 374, 4-((R)-1-cyclopropylpropylamino)-2-((1r,4R)-4-methoxycyclohexylamino)pyrimidine-5-carboxamide] | < 0.2
CCO[C@H]1CC[C@H](Nc2ncc(C(N)=O)c(N[C@H](CC)C3CC3)n2)CC1 [Example 375, 4-((R)-1-cyclopropylpropylamino)-2-((1r,4R)-4-ethoxycyclohexylamino)pyrimidine-5-carboxamide] | < 0.2
CC(C)(C)Nc1nc(N[C@@H]2CCCC[C@H](O)C2)ncc1C(N)=O [Example 376, 4-(tert-butylamino)-2-((1R,3S)-3-hydroxycycloheptylamino)pyrimidine-5-carboxamide] | < 0.2
NC(=O)c1cnc(NC2CC2)nc1N[C@@H]1CCCC[C@H](O)C1 [Example 377, 2-(cyclopropylamino)-4-((1R,3S)-3-hydroxycycloheptylamino)pyrimidine-5-carboxamide] | < 0.2
C[C@]1(O)CCC[C@@H](Nc2nc(NC3CC3)ncc2C(N)=O)C1 [Example 378, 2-(cyclopropylamino)-4-((1R,3S)-3-hydroxy-3-methylcyclohexylamino)pyrimidine-5-carboxamide] | < 0.2
NC(=O)c1cnc(NC2CC2)nc1N[C@@H]1CCC[C@H](O)C1 [Example 379, 2-(cyclopropylamino)-4-((1R,3S)-3-hydroxycyclohexylamino)pyrimidine-5-carboxamide] | < 0.2
CC(C)(C)Nc1nc(N[C@@H]2CCC[C@](C)(O)C2)ncc1C(N)=O [Example 380, 4-(tert-butylamino)-2-((1R,3S)-3-hydroxy-3-methylcyclohexylamino)pyrimidine-5-carboxamide] | < 0.2
CCC(C)(C)Nc1nc(N[C@H]2CC[C@H](OC)CC2)ncc1C(N)=O [Example 381, 2-((1r,4r)-4-methoxycyclohexylamino)-4-(tert-pentylamino)pyrimidine-5-carboxamide] | < 0.2
CCC(C)(C)Nc1nc(N[C@H]2CC[C@H](OC3CC3)CC2)ncc1C(N)=O [Example 382, 2-((1r,4r)-4-cyclopropoxycyclohexylamino)-4-(tert-pentylamino)pyrimidine-5-carboxamide] | < 0.2
CC[C@@H](C)Nc1ncc(C(N)=O)c(N[C@@H]2CC[C@@H](C)[C@H](O)C2)n1 [Example 383, 2-(sec-butylamino)-4-((1R,3R,4R)-3-hydroxy-4-methylcyclohexylamino)pyrimidine-5-carboxamide] | < 0.2
CC[C@H](Nc1nc(N[C@H]2CC[C@H](O)CC2)ncc1C(N)=O)C1CC1 [Example 384, 4-((S)-1-cyclopropylpropylamino)-2-((1r,4S)-4-hydroxycyclohexylamino)pyrimidine-5-carboxamide] | < 0.2
CC[C@@H](Nc1nc(N[C@H]2CC[C@H](O)CC2)ncc1C(N)=O)C1CC1 [Example 385, 4-((R)-1-cyclopropylpropylamino)-2-((1r,4R)-4-hydroxycyclohexylamino)pyrimidine-5-carboxamide] | < 0.2
CC(C)(C)Nc1nc(N[C@@H]2CCCC[C@@H](O)C2)ncc1C(N)=O [Example 386, 4-(tert-butylamino)-2-((1R,3R)-3-hydroxycycloheptylamino)pyrimidine-5-carboxamide] | < 0.2
CC(C)(C)Nc1nc(N[C@H]2CCCC[C@H](O)C2)ncc1C(N)=O [Example 387, 4-(tert-butylamino)-2-((1S,3S)-3-hydroxycycloheptylamino)pyrimidine-5-carboxamide] | < 0.2
CC(C)(C)Nc1nc(N[C@H]2CCCC[C@@H](O)C2)ncc1C(N)=O [Example 388, 4-(tert-butylamino)-2-((1S,3R)-3-hydroxycycloheptylamino)pyrimidine-5-carboxamide] | < 0.2
CC(C)(C)Nc1nc(NC2(C)CCOCC2)ncc1C(N)=O [Example 389, 4-(tert-butylamino)-2-(4-methyltetrahydro-2H-pyran-4-ylamino)pyrimidine-5-carboxamide] | < 0.2

Compound | IC50 [µM]
CCCC(C)(C)Nc1nc(N[C@H]2CC[C@H](O)CC2)ncc1C(N)=O [Example 390, 2-((1r,4r)-4-hydroxycyclohexylamino)-4-(2-methylpentan-2-ylamino)pyrimidine-5-carboxamide] | < 0.2
CCCC(C)(C)Nc1nc(N[C@H]2CC[C@H](OCC)CC2)ncc1C(N)=O [Example 391, 2-((1r,4r)-4-ethoxycyclohexylamino)-4-(2-methylpentan-2-ylamino)pyrimidine-5-carboxamide] | < 0.2
CCCC(C)(C)Nc1nc(N[C@H]2CC[C@H](OC)CC2)ncc1C(N)=O [Example 392, 2-((1r,4r)-4-methoxycyclohexylamino)-4-(2-methylpentan-2-ylamino)pyrimidine-5-carboxamide] | < 0.2
CC12CC(Nc3nc(N[C@H]4CC[C@H](O)CC4)ncc3C(N)=O)(C1)C2 [Example 393, 2-((1r,4r)-4-hydroxycyclohexylamino)-4-(3-methylbicyclo[1.1.1]pentan-1-ylamino)pyrimidine-5-carboxamide] | < 0.2
C[C@@H]1CC[C@@H](Nc2nc(N[C@H](C)C3CC3)ncc2C(N)=O)C[C@H]1O [Example 394, 2-((R)-1-cyclopropylethylamino)-4-((1R,3R,4R)-3-hydroxy-4-methylcyclohexylamino)pyrimidine-5-carboxamide] | < 0.2
C[C@H](Nc1ncc(C(N)=O)c(N[C@@H]2CC[C@@H](C)[C@H](O)C2)n1)C1CC1 [Example 395, 2-((S)-1-cyclopropylethylamino)-4-((1R,3R,4R)-3-hydroxy-4-methylcyclohexylamino)pyrimidine-5-carboxamide] | < 0.2
C[C@@H]1CC[C@@H](Nc2nc(NC34CC(C)(C3)C4)ncc2C(N)=O)C[C@H]1O [Example 396, 4-((1R,3R,4R)-3-hydroxy-4-methylcyclohexylamino)-2-(3-methylbicyclo[1.1.1]pentan-1-ylamino)pyrimidine-5-carboxamide] | < 0.2
C[C@@H]1CC[C@@H](Nc2nc(NC(C)(C)C3CC3)ncc2C(N)=O)C[C@H]1O [Example 397, 2-(2-cyclopropylpropan-2-ylamino)-4-((1R,3R,4R)-3-hydroxy-4-methylcyclohexylamino)pyrimidine-5-carboxamide] | < 0.2
CC[C@H](C)Nc1ncc(C(N)=O)c(N[C@@H]2CC[C@@H](C)[C@H](O)C2)n1 [Example 398, 2-(sec-butylamino)-4-((1R,3R,4R)-3-hydroxy-4-methylcyclohexylamino)pyrimidine-5-carboxamide] | < 0.2
CC(C)(C)Nc1nc(NC23CCC(O)(CC2)C3)ncc1C(N)=O [Example 399, 4-(tert-butylamino)-2-(4-hydroxybicyclo[2.2.1]heptan-1-ylamino)pyrimidine-5-carboxamide] | < 0.2
CC1(Nc2nc(N[C@H]3CC[C@H](OC4CC4)CC3)ncc2C(N)=O)CCC1 [Example 400, 2-((1r,4r)-4-cyclopropoxycyclohexylamino)-4-(1-methylcyclobutylamino)pyrimidine-5-carboxamide] | < 0.2
CCO[C@H]1CC[C@H](Nc2ncc(C(N)=O)c(NC3(C)CCC3)n2)CC1 [Example 401, 2-((1r,4r)-4-ethoxycyclohexylamino)-4-(1-methylcyclobutylamino)pyrimidine-5-carboxamide] | < 0.2
CO[C@H]1CC[C@H](Nc2ncc(C(N)=O)c(NC3(C)CCC3)n2)CC1 [Example 402] | < 0.2
CC1(Nc2nc(N[C@H]3CCCOC3)ncc2C(N)=O)CCC1 [Example 403, (S)-4-(1-methylcyclobutylamino)-2-(tetrahydro-2H-pyran-3-ylamino)pyrimidine-5-carboxamide] | < 0.2
CC1(Nc2nc(N[C@@H]3CCC[C@H](O)C3)ncc2C(N)=O)CCC1 [Example 404, 2-((1R,3S)-3-hydroxycyclohexylamino)-4-(1-methylcyclobutylamino)pyrimidine-5-carboxamide] | < 0.2
NC(=O)c1cnc(N[C@H]2CCCOC2)nc1NC12CC(C1)C2 [Example 405, (S)-4-(bicyclo[1.1.1]pentan-1-ylamino)-2-(tetrahydro-2H-pyran-3-ylamino)pyrimidine-5-carboxamide] | < 0.2
NC(=O)c1cnc(NC2CCOCC2)nc1NC12CC(C1)C2 [Example 407, 4-(bicyclo[1.1.1]pentan-1-ylamino)-2-(tetrahydro-2H-pyran-4-ylamino)pyrimidine-5-carboxamide] | < 0.2
C[C@@H](Nc1nc(NC23CCC(O)(CC2)CC3)ncc1C(N)=O)C1CC1 [Example 408, (R)-4-(1-cyclopropylethylamino)-2-(4-hydroxybicyclo[2.2.2]octan-1-ylamino)pyrimidine-5-carboxamide] | < 0.2
C[C@@H](Nc1nc(N[C@H]2CC[C@H](OCC(F)(F)F)CC2)ncc1C(N)=O)C1CC1 [Example 409, 4-((R)-1-cyclopropylethylamino)-2-((1r,4R)-4-(2,2,2-trifluoroethoxy)cyclohexylamino)pyrimidine-5-carboxamide] | < 0.2
